This is an account of results in ChEMBL document CHEMBL1201862, “PubChem BioAssay data set” (2004).

The structures appear in SMILES notation.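 Protocol summary: plate cells (96-well), add compound at 5 concentrations, incubate 48 h, interpolate endpoints linearly. GI50 is the concentration that inhibits growth by half.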 Calls of active or inactive are those of the source. No stated cut-off is given here; in the data, active = GI50 up to about 1.1 µM and inactive = higher. Where a SMILES comes first, the peptide text is derived from it. The star is where a group is joined. Cbz = O=C(OCc1ccccc1)*; Bn = c1ccc(C*)cc1

Among the test systems are SK-MEL-2; MOLT-4; U-251; NCI-H226; SW-620; MDA-MB-231; SK-MEL-5; NCI/ADR-RES; OVCAR-4; UACC-257; CAKI-1; SF-268; BT-549; COLO 205; RPMI-8226; T47D; CCRF-CEM; IGROV-1; A498; 786-0.
Common to all, as to assay: inhibition of tumour cell growth, NCI panel, 48 h

For the compound `COC(=O)C(Cc1ccc(O)cc1)NC(=O)C(COCc1ccccc1)NC(=O)OCc1ccccc1` (stereo unspecified) (Cbz-Ser(Bn)-Tyr-OMe; configuration not given here), the GI50 with SK-MEL-2 is 23 µM (inactive); with MOLT-4 it was > 100 µM (inactive); in the assay on U-251, 18.7 µM (inactive); in the assay with NCI-H226 it was 20.1 µM (inactive); in the assay on SW-620, 18.8 µM (inactive); with MDA-MB-231, 18.8 µM (inactive). For the same compound, the GI50 is 17 µM (inactive) with SK-MEL-5; 19.6 µM (inactive) in the assay on NCI/ADR-RES; 19.4 µM (inactive) in the assay on OVCAR-4; 19.3 µM (inactive) in the assay with UACC-257; 20.2 µM (inactive) in the assay on CAKI-1; 17.5 µM (inactive) with SF-268. In addition, the GI50 in the assay with BT-549 was 72.3 µM (inactive); with COLO 205, 17.1 µM (inactive); in the assay with RPMI-8226, 74.6 µM (inactive); with T47D, 17.7 µM (inactive); in the assay on CCRF-CEM, 71.4 µM (inactive); with IGROV-1, 17.6 µM (inactive). The GI50 in the assay with A498 is 26.3 µM (inactive).
In the case of `COc1cccc(Nc2nc(-c3cccs3)nc3ccc(Br)cc23)c1`, the GI50 is > 100 µM (inactive) with SK-MEL-2; 35.5 µM (inactive) in the assay with U-251; 78 µM (inactive) in the assay with NCI-H226; > 100 µM (inactive) in the assay with SW-620; 37.8 µM (inactive) in the assay with MDA-MB-231; 55.5 µM (inactive) in the assay with SK-MEL-5. Besides, the GI50 was 40.5 µM (inactive) in the assay on NCI/ADR-RES; 33.3 µM (inactive) with 786-0; > 100 µM (inactive) with UACC-257; 33.7 µM (inactive) in the assay on CAKI-1; 41.8 µM (inactive) with SF-268; > 100 µM (inactive) in the assay on BT-549. Further, the GI50 is > 100 µM (inactive) in the assay with COLO 205; 1.67 µM (inactive) with RPMI-8226; > 100 µM (inactive) in the assay on T47D; 0.0101 µM (active) in the assay on CCRF-CEM; > 100 µM (inactive) with IGROV-1; > 100 µM (inactive) in the assay on A498.
Turning to `Cc1[nH]nc(-c2ccon2)c1N=O`, the GI50 is 34.3 µM (inactive) with SK-MEL-2; 2 µM (inactive) with MOLT-4; 17.9 µM (inactive) in the assay with U-251; 14.6 µM (inactive) in the assay with NCI-H226; 21.2 µM (inactive) in the assay on SW-620; 16.8 µM (inactive) with MDA-MB-231. In addition, the GI50 with SK-MEL-5 is 18.2 µM (inactive); in the assay with NCI/ADR-RES, 19.8 µM (inactive); in the assay with OVCAR-4, 17.5 µM (inactive); in the assay with 786-0, 20.4 µM (inactive); in the assay on UACC-257, 17.4 µM (inactive); in the assay with CAKI-1, 25.8 µM (inactive). The GI50 in the assay on SF-268 was 20 µM (inactive); with BT-549 it was 18.6 µM (inactive); in the assay on COLO 205, 19.9 µM (inactive); in the assay with RPMI-8226, 3.78 µM (inactive); with T47D, 25.1 µM (inactive); with IGROV-1 it was 23 µM (inactive). Besides, the GI50 with A498 was > 100 µM (inactive).
Regarding `O=CC1C(Cl)=Nc2nc3ccccc3n2C1c1ccc([N+](=O)[O-])cc1` (stereo unspecified), the GI50 was 6.03 µM (inactive) in the assay with SK-MEL-2; 1.71 µM (inactive) in the assay on MOLT-4; 5.52 µM (inactive) with U-251; 3.33 µM (inactive) in the assay with NCI-H226; 4.8 µM (inactive) in the assay on SW-620; 14.9 µM (inactive) in the assay with MDA-MB-231. Moreover, the GI50 in the assay with SK-MEL-5 was 6.68 µM (inactive); with NCI/ADR-RES it was 40.5 µM (inactive); in the assay with OVCAR-4, 13.6 µM (inactive); in the assay on 786-0 it was 4.3 µM (inactive); with UACC-257 it was 13.6 µM (inactive); with CAKI-1, 3.09 µM (inactive). Also, the GI50 in the assay on SF-268 was 6.84 µM (inactive); in the assay with BT-549 it was < 0.01 µM (active); with COLO 205 it was 3.14 µM (inactive); in the assay with RPMI-8226 it was 3.77 µM (inactive); with T47D, 1.57 µM (inactive); in the assay with CCRF-CEM, 3.11 µM (inactive). The GI50 in the assay with IGROV-1 was 12.3 µM (inactive); with A498 it was 24.7 µM (inactive).
In the case of `COc1ccc2c(c1)CCC(CN1CCN(CCOC(c3ccccc3)c3ccccc3)CC1)C2O` (stereo unspecified), the GI50 with SK-MEL-2 is 17.5 µM (inactive); in the assay with MOLT-4 it was 11.8 µM (inactive); with U-251 it was 14.8 µM (inactive); in the assay with NCI-H226 it was 16.3 µM (inactive); with SW-620 it was 20 µM (inactive); with MDA-MB-231, 15.7 µM (inactive). Besides, the GI50 in the assay on SK-MEL-5 is 8.3 µM (inactive); in the assay on NCI/ADR-RES it was 13.8 µM (inactive); in the assay on OVCAR-4, 15.9 µM (inactive); in the assay on 786-0 it was 16.6 µM (inactive); in the assay on UACC-257 it was 13 µM (inactive); in the assay with CAKI-1 it was 15.7 µM (inactive). In addition, the GI50 with SF-268 is 16.6 µM (inactive); in the assay on BT-549, 14 µM (inactive); in the assay on COLO 205 it was 12.6 µM (inactive); with RPMI-8226, 11 µM (inactive); with T47D it was 16.1 µM (inactive); in the assay on CCRF-CEM, 16.3 µM (inactive). In addition, the GI50 was 15.4 µM (inactive) in the assay on IGROV-1 and 10.5 µM (inactive) in the assay with A498.
`N/C(S)=N/N=C/c1ccc(O)cn1`: the GI50 in the assay on U-251 was 6.18 µM (inactive); in the assay with NCI-H226, 24.2 µM (inactive); with SW-620, 15.4 µM (inactive); in the assay on MDA-MB-231, 18.5 µM (inactive); in the assay with SK-MEL-5, 5.65 µM (inactive); in the assay on NCI/ADR-RES it was 4.01 µM (inactive). The GI50 with UACC-257 is 22.4 µM (inactive); in the assay with SF-268, 4.3 µM (inactive); in the assay on BT-549 it was 44.5 µM (inactive); in the assay on RPMI-8226, 10.7 µM (inactive); in the assay on T47D, 4.72 µM (inactive); in the assay on CCRF-CEM, 1.78 µM (inactive). Besides, the GI50 in the assay on IGROV-1 was 21.3 µM (inactive); in the assay on A498 it was 32 µM (inactive).
`COc1cc(C2c3cc(OC)c(OC)c(O)c3C(=O)C3CCC(=O)N32)cc(OC)c1OC` (stereo unspecified): the GI50 in the assay on SK-MEL-2 is > 100 µM (inactive); in the assay on MOLT-4, 25.6 µM (inactive); in the assay with U-251, 86.7 µM (inactive); in the assay with NCI-H226, 10.9 µM (inactive); in the assay with SW-620 it was 35.6 µM (inactive); with MDA-MB-231 it was 44.1 µM (inactive). Also, the GI50 is 53.1 µM (inactive) with SK-MEL-5; 22 µM (inactive) in the assay with NCI/ADR-RES; > 100 µM (inactive) in the assay with OVCAR-4; > 100 µM (inactive) with 786-0; > 100 µM (inactive) in the assay with UACC-257; > 100 µM (inactive) with CAKI-1. Besides, the GI50 in the assay with SF-268 was 69.8 µM (inactive); in the assay on BT-549, 25.2 µM (inactive); in the assay with COLO 205 it was 24.8 µM (inactive); in the assay on RPMI-8226, 28.8 µM (inactive); in the assay with T47D it was > 100 µM (inactive); in the assay with IGROV-1, > 100 µM (inactive). Besides, the GI50 with A498 is > 100 µM (inactive).
For `Nc1c2c(=O)[nH]c(=O)c2c(N)c2c(=O)c3ccccc3c(=O)c12`, the GI50 was 2.07 µM (inactive) in the assay with SK-MEL-2; 3.68 µM (inactive) in the assay with MOLT-4; 3.61 µM (inactive) in the assay on U-251; 1.85 µM (inactive) with NCI-H226; 1.69 µM (inactive) with SW-620; 3.02 µM (inactive) in the assay with MDA-MB-231. Moreover, the GI50 was 0.179 µM (active) in the assay with SK-MEL-5; 2.11 µM (inactive) in the assay with NCI/ADR-RES; 1.21 µM (inactive) in the assay on OVCAR-4; 2.69 µM (inactive) with 786-0; 1.69 µM (inactive) in the assay with UACC-257; 3.5 µM (inactive) in the assay on CAKI-1. For the same compound, the GI50 in the assay with SF-268 was 2.65 µM (inactive); in the assay with BT-549 it was 1.99 µM (inactive); with COLO 205 it was 0.687 µM (active); in the assay on RPMI-8226, 2.05 µM (inactive); in the assay with T47D it was 3.94 µM (inactive); in the assay on CCRF-CEM it was 2.93 µM (inactive). The GI50 in the assay on IGROV-1 is 1.65 µM (inactive); in the assay on A498, 1.12 µM (inactive).
`Cc1ccc(-c2c(C#N)c(N)nc3c2CCS(=O)(=O)c2ccccc2-3)cc1`: the GI50 is 49.1 µM (inactive) in the assay with SK-MEL-2; 68.2 µM (inactive) in the assay on U-251; 66.1 µM (inactive) in the assay on NCI-H226; > 100 µM (inactive) in the assay with SW-620; > 100 µM (inactive) in the assay with MDA-MB-231; 66.7 µM (inactive) in the assay with SK-MEL-5. Moreover, the GI50 in the assay with NCI/ADR-RES was 85.9 µM (inactive); in the assay on OVCAR-4, 40.6 µM (inactive); in the assay on 786-0, 44.2 µM (inactive); in the assay with UACC-257, 65 µM (inactive); in the assay on CAKI-1, > 100 µM (inactive); in the assay on SF-268, 83.4 µM (inactive). Further, the GI50 was 95.3 µM (inactive) with BT-549; > 100 µM (inactive) in the assay with COLO 205; > 100 µM (inactive) in the assay with RPMI-8226; 55.5 µM (inactive) in the assay with T47D; 34.1 µM (inactive) with IGROV-1; > 100 µM (inactive) with A498.
Take `O=C(Cc1ccccc1)NN1C(=O)/C(=C\c2ccc(O)cc2)S/C1=N\c1ccccc1`: the GI50 was > 100 µM (inactive) with SK-MEL-2; 95.5 µM (inactive) in the assay on MOLT-4; > 100 µM (inactive) in the assay with U-251; > 100 µM (inactive) with NCI-H226; > 100 µM (inactive) in the assay with SW-620; > 100 µM (inactive) with MDA-MB-231. In addition, the GI50 with SK-MEL-5, with NCI/ADR-RES, in the assay on OVCAR-4, in the assay on 786-0, in the assay on UACC-257 and with SF-268 was > 100 µM (inactive) each time. For the same compound, the GI50 is > 100 µM (inactive) in the assay with BT-549; > 100 µM (inactive) in the assay with COLO 205; > 100 µM (inactive) in the assay with RPMI-8226; 41 µM (inactive) in the assay with T47D; > 100 µM (inactive) in the assay with CCRF-CEM; > 100 µM (inactive) in the assay on IGROV-1. Further, the GI50 in the assay with A498 is > 100 µM (inactive).
As for `O=Cc1cccc2ccc3ccccc3c12`, the GI50 in the assay with SK-MEL-2 is 15.1 µM (inactive); in the assay on U-251, 5.93 µM (inactive); in the assay with NCI-H226 it was 24.7 µM (inactive); in the assay on SW-620, 10.4 µM (inactive); in the assay with MDA-MB-231, 17 µM (inactive); with SK-MEL-5 it was 16.9 µM (inactive). For the same compound, the GI50 in the assay with NCI/ADR-RES is 8.45 µM (inactive); with 786-0, 17.5 µM (inactive); in the assay on UACC-257, 32 µM (inactive); in the assay with CAKI-1, 16.1 µM (inactive); with SF-268, 11.5 µM (inactive); in the assay with BT-549 it was 30.5 µM (inactive). The GI50 with COLO 205 is 18.7 µM (inactive); with T47D, 15 µM (inactive); in the assay on A498, 22.4 µM (inactive).
